Columns and labels:
[1] = test system: CDK2 activity (DHB sensor phosphorylation); test: DHB-based CDK2 activity sensor, single-cell time-lapse imaging (C/N ratio); parameters: species or system human
Source text: (§1) The DHB sensor is localized to the nucleus when it is not phosphorylated. Upon phosphorylation, the nuclear localization signal is masked, the nuclear export signal is unmasked, and the sensor steadily translocates to the cytoplasm in response to increasing CDK2 activity (FIG. 1A). Thus, kinase activity can be quantified by the ratio of the cytoplasmic to nuclear fluorescence intensity (C/N ratio) of the DHB sensor. […] Asynchronously cycling cells were first imaged for approximately 20 hr in the absence of drug to establish the cell-cycle phase of each cell; the movie was then paused to add drug, and then imaging was continued for another 1-2 days. Because the cells were cycling asynchronously, all cell-cycle phases with one drug treatment were sampled. This allowed the present inventors to computationally isolate traces for cells that received drug at any time since the completion of anaphase.
(§2) Cells were seeded at least 24 hr prior to imaging in phenol-red-free full-growth medium in glass-bottom 96-well plates (CellVis P96-1.5H-N) that were coated with collagen prior to seeding. The seeding density was chosen such that the cells would remain sub-confluent until the end of the imaging period. Cells were first imaged for 16-20 hr in full-growth media without drug. The movie was then briefly paused and the full-growth media was replaced with full-growth media containing drug at the desired concentration. The plate was then re-inserted into the microscope and aligned to its prior position and imaging was continued for an additional 24-48 hr. Images were acquired every 12 min (for MCF10A or RPE-hTERT) or every 20 min (for MCF7 or OVCAR3) on a Nikon Eclipse Ti or Ti2 microscope with a 10×0.45 NA objective in a humidified, 37° C. chamber at 5% CO2. Exposure times for all movies for all channels were kept under 500 ms per timepoint to minimize phototoxicity. Cell tracking was performed using published MATLAB scripts (Cappell et al., 2016), as described previously (Arora et al., 2017). The tracking code is available for download at https://github.com/scappell/Cell_tracking. Cell counts over time were obtained by counting the number of segmented nuclei in each frame of the movie.
Asynchronously cycling cells that divided and received drug treatments during the imaging period were initially segmented into categories based on the cells' time of anaphase relative to the time of drug addition. These cells were then additionally subcategorized based on their DHB cytoplasmic/nuclear (C/N) ratio after the mitotic event. C/N ratio was calculated by quantifying the ratio of cytoplasmic to nuclear mean DHB fluorescence, with the cytoplasmic component calculated as the mean of the top 50th percentile of a ring of pixels outside of the nuclear mask.
Cells were classified as CDK2^inc if the DHB C/N ratio was above 0.5 units 3 hr after anaphase, otherwise they were classified as CDK2^low. Figure legends indicate whether only CDK2^inc cells or whether all cells are plotted. The median of the single-cell traces in a subcategory was then used to create median trace with 95% confidence interval representative of the particular subcategory. All cell trace analysis was done using custom MATLAB scripts and code is available upon request.

[2] = test system: MCF10A, RPE-hTERT, MCF7 and OVCAR3 cells; test: Cell-cycle progression, mitosis and proliferation by time-lapse imaging; type: cell-based, human
Source text: as §1, §2

[3] = test system: Rb, Nucleolin, Cdc6 and Nbs1 phosphorylation; test: Immunofluorescence and western blotting of endogenous CDK2 substrates; type: cell-based, human; conditions: for Rb phosphorylation: 1 hr palbociclib treatment
Description: Cells were fixed for 15 minutes with freshly prepared 4% paraformaldehyde, washed twice with PBS, and incubated with a blocking buffer (3% BSA in PBS) for 1 hr at room temperature. Permeabilization was carried out using 0.2% Triton-X 100 for 15 min at 4° C. Primary antibody was diluted in blocking buffer and incubated with cells overnight at 4° C. followed by three washes with 1×PBS. Secondary antibodies conjugated to Alexa Fluor 488, Alexa Fluor 546 or Alexa Fluor 647 were incubated for 1 hr followed by three washes with 1×PBS. DNA was stained using Hoechst 33342 dye for 10 minutes at 1:10000 (ThermoFisher H3570). Images were acquired on a Nikon Eclipse Ti or Ti2 microscope with a 10×0.45 NA objective. DNA content was determined by taking the integrated intensity of each cell's Hoechst signal. Cells were delineated as 3-4N DNA content by plotting a histogram of DNA content and drawing a threshold and the end of the 2N peak.
Lysates were prepared using 1×LDS sample buffer (ThermoFisher NP007) using equal numbers of cells. Proteins were separated using NuPAGE precast polyacrylamide gels (ThermoFisher NP0301). Total protein was quantified using Azure Red Dye (Azure Biosystems AC2124) and was used to normalize the signal from antibodies of interest. Primary antibodies used are specified under the “Antibodies” section. HRP-conjugated or IR700 and IR800 labeled fluorescent secondary antibodies were used for visualization (Cell Signaling Technology 7074 and 7076).

[4] = PF3600, MCF10A, MCF7 and RPE-hTERT cells

SMILES | effect on DHB sensor phosphorylation, cell-cycle progression, or the timing of mitosis ([1]; 1 μM palbociclib added 5 hr or later after anaphase/mitosis, MCF10A) | cell-cycle arrest ([2]; 1 μM palbociclib (after the upcoming mitosis) or 9 μM RO3306 (toward end of cell cycle), MCF10A) | sensitivity to palbociclib ([2]; MCF10A, MCF7 and RPE-hTERT cells) | sensitivity to palbociclib ([2]; OVCAR3 cells (amplification of cyclin E)) | Rb phosphorylation ([3]; cells with 2N DNA content) | Rb phosphorylation ([3]; cells with 3-4N DNA content) | DHB sensor phosphorylation behavior ([1]; 25 nM PF3600, MCF7) | DHB sensor phosphorylation behavior ([1]; 100 nM PF3600, MCF7) | cells that initially responded ([1]; PF3600) [%] | rebound of DHB sensor phosphorylation ([1]; PF3600, OVCAR3 cells) | onset of rebound in DHB sensor phosphorylation [1, 4] [h] | time until DHB sensor phosphorylation returned to pre-treatment levels [1, 4] [h] | cell proliferation and mitoses ([2]; 25 nM PF3600, OVCAR3 cells, remainder of the imaging period) | mitosis ([2]; 100 nM PF3600, MCF7) | cell-cycle progression and mitosis after PF3600 [2, 4] | intermitotic times [2, 4] | Rb and Nucleolin phosphorylation by immunofluorescence ([3]; 100 nM PF3600, MCF10A cells with 3-4N DNA content)
CC(=O)c1c(C)c2cnc(Nc3ccc(N4CCNCC4)cn3)nc2n(C2CCCC2)c1=O [palbociclib] | no immediate effect | CDK2^low G0 arrest | palbociclib-sensitive | resistant | dephosphorylation of Rb | no effect |  |  |  |  |  |  |  |  |  |  | 
C[C@@]1(O)CCC[C@H]1n1c(=O)c(C(F)F)cc2cnc(NC3CCN(S(C)(=O)=O)CC3)nc21 [PF3600, 6-(difluoromethyl)-8-[(1R,2R)-2-hydroxy-2-methylcyclopentyl]-2-{[1-(methylsulfonyl)-piperidin-4-yl]amino}pyrido[2,3-d]pyrimidin-7(8H)-one] |  |  |  |  |  |  | drop-rebound behavior | brief rebound followed by long-lived suppression of DHB phosphorylation | 100 | did not rebound | 1 to 2 | ≤ 5 | inhibited cell proliferation and prevented all further mitoses | blocked mitosis | cell-cycle progression continued, and cells eventually completed mitosis | longer intermitotic times | transient reduction in Rb and Nucleolin phosphorylation followed by a rebound
